One assay concerns the target Jarid1B (Homo sapiens (Human), UniProt Q9UGL1). Description: Jarid1B in vitro enzyme inhibition assay (TR-FRET). The assay is classed as biochemical.
For another assay, the target named is JMJD2A (Homo sapiens (Human), UniProt O75164). Description: JMJD2A in vitro enzyme inhibition assay (TR-FRET). The format is biochemical. Background: TR-FRET usually uses a lanthanide donor and a delayed reading to cut background.
For another assay, the target named is Jarid1A (Homo sapiens (Human), UniProt P29375). The experiment in a line: Jarid1A in vitro enzyme inhibition assay (TR-FRET). The format is biochemical. The source says: The enzymatic assay of Jarid1A activity is based upon Time Resolved-Fluorescence Resonance Energy Transfer (TR-FRET) detection.
In another assay the test system is KDM5A and KDM5B. Description: In vitro cell-based assay: tri-methyl H3K4 immuno-blotting in ZR-75-1 cells (cellular inhibition of KDM5A/B). The following applies: ZR-75-1 breast cancer cells, 72 hours, tri-methylated H3K4 level; read-out: IC50 ZR-75-1 cell-MOA.
The next assay concerns the target FBXL10 (Homo sapiens (Human), UniProt Q8NHM5). Description: FBXL10 in vitro enzyme inhibition assay (AlphaScreen). The format is biochemical. The method in brief:
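AlphaScreen read-out of H3K36me1 product, detected with anti-H3K36me1 antibody plus streptavidin donor and Protein A acceptor beads (final 10 μg/ml) in 50 mM HEPES pH 7.3, 10 mM NaCl, 0.005% Brij35, 5 mM EDTA, 2 mg/ml BSA. Beads incubated 2 h to overnight at room temperature; IC50 derived from AlphaScreen signal.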
Background: Bead proximity is the source of the signal in Alpha formats.

The target of a further assay is JMJD2C (Homo sapiens (Human), UniProt Q9H3R0). Description: JMJD2C in vitro enzyme inhibition assay (TR-FRET). The assay is classed as biochemical.

Where only a bound is given, the exact number is not on record here.

Sequence of Jarid1A (P29375 1-1090): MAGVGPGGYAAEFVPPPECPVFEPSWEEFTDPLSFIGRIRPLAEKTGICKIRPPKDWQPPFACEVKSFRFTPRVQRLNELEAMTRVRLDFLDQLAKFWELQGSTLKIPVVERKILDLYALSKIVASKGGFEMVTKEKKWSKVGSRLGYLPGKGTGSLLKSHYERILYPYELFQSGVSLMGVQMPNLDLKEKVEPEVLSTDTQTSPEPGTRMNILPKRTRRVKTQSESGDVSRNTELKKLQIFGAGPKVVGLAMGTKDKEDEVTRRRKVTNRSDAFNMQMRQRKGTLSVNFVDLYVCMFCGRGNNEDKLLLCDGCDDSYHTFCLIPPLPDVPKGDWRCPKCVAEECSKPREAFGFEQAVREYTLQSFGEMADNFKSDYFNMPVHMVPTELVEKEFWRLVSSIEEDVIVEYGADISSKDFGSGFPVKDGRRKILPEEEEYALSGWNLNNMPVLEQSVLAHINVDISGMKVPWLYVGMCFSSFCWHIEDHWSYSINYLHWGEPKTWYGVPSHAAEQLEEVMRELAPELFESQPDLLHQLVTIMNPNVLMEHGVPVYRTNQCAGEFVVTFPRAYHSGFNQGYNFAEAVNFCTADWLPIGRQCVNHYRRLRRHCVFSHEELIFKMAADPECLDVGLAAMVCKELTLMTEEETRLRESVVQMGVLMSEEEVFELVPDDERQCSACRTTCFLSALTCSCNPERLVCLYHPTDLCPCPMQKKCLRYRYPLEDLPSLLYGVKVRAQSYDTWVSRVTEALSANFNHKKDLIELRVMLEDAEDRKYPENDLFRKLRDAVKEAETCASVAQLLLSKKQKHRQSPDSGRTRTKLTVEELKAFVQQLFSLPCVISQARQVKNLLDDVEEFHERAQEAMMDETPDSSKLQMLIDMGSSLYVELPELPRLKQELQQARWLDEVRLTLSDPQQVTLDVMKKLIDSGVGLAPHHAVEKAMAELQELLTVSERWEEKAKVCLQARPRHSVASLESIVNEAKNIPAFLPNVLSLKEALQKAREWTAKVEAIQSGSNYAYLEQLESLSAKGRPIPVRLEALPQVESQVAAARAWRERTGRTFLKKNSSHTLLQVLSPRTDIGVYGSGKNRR
Sequence of Jarid1B (Q9UGL1 2-751): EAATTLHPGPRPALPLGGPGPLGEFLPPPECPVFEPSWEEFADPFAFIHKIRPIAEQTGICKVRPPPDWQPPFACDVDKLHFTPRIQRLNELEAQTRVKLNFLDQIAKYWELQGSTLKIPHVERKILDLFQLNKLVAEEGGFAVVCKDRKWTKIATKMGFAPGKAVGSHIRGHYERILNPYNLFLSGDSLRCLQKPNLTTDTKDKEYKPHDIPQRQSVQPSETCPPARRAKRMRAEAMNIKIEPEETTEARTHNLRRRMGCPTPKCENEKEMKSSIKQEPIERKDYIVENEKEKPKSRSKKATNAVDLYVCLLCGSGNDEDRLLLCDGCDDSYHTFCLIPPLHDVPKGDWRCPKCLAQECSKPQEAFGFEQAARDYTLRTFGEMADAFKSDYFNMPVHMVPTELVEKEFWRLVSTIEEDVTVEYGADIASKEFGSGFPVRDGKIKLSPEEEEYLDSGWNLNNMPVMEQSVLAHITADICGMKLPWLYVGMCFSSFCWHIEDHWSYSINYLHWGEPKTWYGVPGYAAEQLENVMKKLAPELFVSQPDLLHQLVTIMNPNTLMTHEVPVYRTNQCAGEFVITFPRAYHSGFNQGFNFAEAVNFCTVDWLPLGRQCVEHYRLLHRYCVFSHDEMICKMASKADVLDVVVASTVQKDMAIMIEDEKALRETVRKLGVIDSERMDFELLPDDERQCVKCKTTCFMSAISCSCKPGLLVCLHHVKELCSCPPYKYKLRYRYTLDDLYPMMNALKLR
Sequence of JMJD2A (O75164 1-350): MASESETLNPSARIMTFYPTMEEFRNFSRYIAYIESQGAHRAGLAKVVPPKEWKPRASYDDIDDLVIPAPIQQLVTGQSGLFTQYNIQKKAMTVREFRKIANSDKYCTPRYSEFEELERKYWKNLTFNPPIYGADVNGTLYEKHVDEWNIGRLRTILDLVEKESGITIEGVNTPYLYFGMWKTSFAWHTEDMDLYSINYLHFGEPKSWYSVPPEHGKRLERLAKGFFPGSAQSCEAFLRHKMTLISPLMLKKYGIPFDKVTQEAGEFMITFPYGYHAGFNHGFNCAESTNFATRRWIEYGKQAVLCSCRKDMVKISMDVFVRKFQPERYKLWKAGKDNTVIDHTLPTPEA
Sequence of FBXL10 (Q8NHM5 1-650): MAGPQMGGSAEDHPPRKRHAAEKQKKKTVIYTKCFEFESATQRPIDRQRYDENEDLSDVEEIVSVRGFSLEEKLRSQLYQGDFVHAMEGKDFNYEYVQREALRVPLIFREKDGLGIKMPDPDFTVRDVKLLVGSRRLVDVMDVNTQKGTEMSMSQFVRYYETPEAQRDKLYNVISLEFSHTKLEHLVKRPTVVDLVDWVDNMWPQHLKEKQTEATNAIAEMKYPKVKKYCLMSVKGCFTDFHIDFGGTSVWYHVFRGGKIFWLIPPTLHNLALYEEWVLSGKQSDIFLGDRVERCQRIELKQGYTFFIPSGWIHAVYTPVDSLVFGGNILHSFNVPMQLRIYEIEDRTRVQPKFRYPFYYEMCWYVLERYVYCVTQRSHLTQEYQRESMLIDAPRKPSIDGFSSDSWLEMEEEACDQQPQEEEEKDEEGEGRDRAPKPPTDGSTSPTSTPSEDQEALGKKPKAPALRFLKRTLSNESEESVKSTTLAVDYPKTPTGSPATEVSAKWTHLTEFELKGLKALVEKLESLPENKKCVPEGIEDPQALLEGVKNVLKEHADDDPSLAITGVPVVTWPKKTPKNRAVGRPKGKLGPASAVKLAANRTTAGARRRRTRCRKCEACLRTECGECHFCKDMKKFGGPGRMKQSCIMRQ
Sequence of JMJD2C (Q9H3R0 2-372): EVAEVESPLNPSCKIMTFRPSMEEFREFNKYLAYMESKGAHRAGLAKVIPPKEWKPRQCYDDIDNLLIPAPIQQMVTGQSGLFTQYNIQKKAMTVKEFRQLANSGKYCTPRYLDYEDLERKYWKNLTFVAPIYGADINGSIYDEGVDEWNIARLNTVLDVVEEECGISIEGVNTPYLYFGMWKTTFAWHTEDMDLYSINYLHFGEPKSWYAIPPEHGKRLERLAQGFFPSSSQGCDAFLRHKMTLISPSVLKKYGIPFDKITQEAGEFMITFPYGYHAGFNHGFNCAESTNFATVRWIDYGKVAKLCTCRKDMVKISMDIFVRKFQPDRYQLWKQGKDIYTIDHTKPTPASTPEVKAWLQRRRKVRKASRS
Protocol for JMJD2A: This assay determines the ability of a test compound to inhibit Jarid1A, Jarid1B, JMJD2C, and JMJD2A demethylase activity. […] Baculovirus expressed JMJD2A (GenBank Accession #NM_014663, AA 1-350) was purchased from BPS Bioscience (Cat#50123).
The ability of test compounds to inhibit the activity of JMJD2A was determined in 384-well plate format under the following reaction conditions: 2 nM JMJD2A, 300 nM H3K9me3-biotin labeled peptide (Anaspec cat #64360), 2 μM alpha-ketoglutaric acid in assay buffer of 50 mM HEPES, pH7.3, 0.005% Brij35, 0.5 mM TCEP, 0.2 mg/ml BSA, 50 μM sodium L-ascorbate, and 2 μM ammonium iron(II) sulfate. Reaction product was determined quantitatively by TR-FRET after the addition of detection reagent Phycolink Streptavidin-allophycocyanin (Prozyme) and Europium-anti-di-methylated histone H3 lysine 9 (H3K9me2) antibody (PerkinElmer) in the presence of 5 mM EDTA in LANCE detection buffer (PerkinElmer) at a final concentration of 50 nM and 1 nM, respectively.
The assay reaction was initiated by the following: 2 μl of the mixture of 900 nM H3K9me3-biotin labeled peptide and 6 μM alpha-ketoglutaric acid with 2 μl of 11-point serial diluted inhibitor in 3% DMSO were added to each well of plate, followed by the addition of 2 μl of 6 nM JMJD2A to initiate the reaction. The reaction mixture was incubated at room temperature for 30 minutes, and terminated by the addition of 6 μl of 5 mM EDTA in LANCE detection buffer containing 100 nM Phycolink Streptavidin-allophycocyanin and 2 nM Europium-anti-H3K9me2 antibody. Plates were read by EnVisionMultilabel Reader in TR-FRET mode (excitation at 320 nm, emission at 615 nm and 665 nm) after 1 hour incubation at room temperature. A ratio was calculated (665/615) for each well and fitted to determine inhibition constant (IC50).
Protocol for JMJD2C: This assay determines the ability of a test compound to inhibit Jarid1A, Jarid1B, JMJD2C, and JMJD2A demethylase activity. […] Baculovirus expressed JMJD2C (GenBank Accession #BC143571, AA 2-372) was purchased from BPS Bioscience (Cat#50105).
The ability of test compounds to inhibit the activity of JMJD2C was determined in 384-well plate format under the following reaction conditions: 0.3 nM JMJD2C, 300 nM H3K9me3-biotin labeled peptide (Anaspec cat #64360), 2 μM alpha-ketoglutaric acid in assay buffer of 50 mM HEPES, pH7.3, 0.005% Brij35, 0.5 mM TCEP, 0.2 mg/ml BSA, 50 μM sodium L-ascorbate, and 2 μM ammonium iron(II) sulfate. Reaction product was determined quantitatively by TR-FRET after the addition of detection reagent Phycolink Streptavidin-allophycocyanin (Prozyme) and Europium-anti-di-methylated histone H3 lysine 9 (H3K9me2) antibody (PerkinElmer) in the presence of 5 mM EDTA in LANCE detection buffer (PerkinElmer) at a final concentration of 50 nM and 1 nM, respectively.
The assay reaction was initiated by the following: 2 μl of the mixture of 900 nM H3K9me3-biotin labeled peptide and 6 μM alpha-ketoglutaric acid with 2 μl of 11-point serial diluted inhibitor in 3% DMSO were added to each well of the plate, followed by the addition of 2 μl of 0.9 nM JMJD2C to initiate the reaction. The reaction mixture was incubated at room temperature for 30 minutes, and terminated by the addition of 6 μl of 5 mM EDTA in LANCE detection buffer containing 100 nM Phycolink Streptavidin-allophycocyanin and 2 nM Europium-anti-H3K9me2 antibody. Plates were read by EnVisionMultilabel Reader in TR-FRET mode (excitation at 320 nm, emission at 615 nm and 665 nm) after 1 hour incubation at room temperature. A ratio was calculated (665/615) for each well and fitted to determine inhibition constant (IC50).
Protocol for Jarid1B: This assay determines the ability of a test compound to inhibit Jarid1A, Jarid1B, JMJD2C, and JMJD2A demethylase activity.
The ability of test compounds to inhibit the activity of Jarid1B was determined in 384-well plate format under the following reaction conditions: 0.8 nM Jarid1B, 300 nM H3K4me3-biotin labeled peptide (Anaspec cat #64357), 2 μM alpha-ketoglutaric acid in assay buffer of 50 mM HEPES, pH7.3, 0.005% Brij35, 0.5 mM TCEP, 0.2 mg/ml BSA, 50 μM sodium L-ascorbate, and 2 μM ammonium iron(II) sulfate. Reaction product was determined quantitatively by TR-FRET after the addition of detection reagent Phycolink Streptavidin-allophycocyanin (Prozyme) and Europium-anti-mono- or di-methylated histone H3 lysine 4 (H3K4me1-2) antibody (PerkinElmer) in the presence of 5 mM EDTA in LANCE detection buffer (PerkinElmer) at a final concentration of 25 nM and 1 nM, respectively.
The assay reaction was initiated by the following: 2 μl of the mixture of 900 nM H3K4me3-biotin labeled peptide and 6 μM alpha-ketoglutaric acid with 2 μl of 11-point serial diluted inhibitor in 3% DMSO was added to each well of the plate, followed by the addition of 2 μl of 2.4 nM Jarid1B to initiate the reaction. The reaction mixture was incubated at room temperature for 30 minutes, and terminated by the addition of 6 μl of 5 mM EDTA in LANCE detection buffer containing 50 nM Phycolink Streptavidin-allophycocyanin and 2 nM Europium-anti-H3K4me1-2 antibody. Plates were read by EnVisionMultilabel Reader in TR-FRET mode (excitation at 320 nm, emission at 615 nm and 665 nm) after 1 hour incubation at room temperature. A ratio was calculated (665/615) for each well and fitted to determine inhibition constant (IC50).
Protocol for KDM5A and KDM5B: This quantitative immuno-blotting assay measures the amount tri-methylated histone H3 at amino acid Lysine number 4, a specific substrate and product of the direct enzymatic activity of the histone demethylases KDM5A and KDM5B from extracts of the ZR-75-1 breast cancer cell line.
This assay is a fluorometric immunoassay for the quantification of tri-methyl H3K4 extracted from cells treated with test compound and is used as a measure of the cellular inhibition of KDM5A/B.
Extracts were prepared containing all of the cellular histone material using detergent based lysis and sonication methods. These lysates were subsequently normalized for total protein content using a colorimetric bicinchonic acid assay (MicroBCA Pierce/Thermo Scientific). Normalized cell extracts were then subjected to typical immuno-blotting procedures using NuPage reagents (Life Technologies). Electrophoretically separated histones were then transferred and immobilized using polyvinylidene difluoride membrane (Immobilon-FL Millipore). The amount of tri-methylated lysine 4 of histone H3 was detected using an antibody specific to the tri-methylated state (Cell Signaling Technologies) and quantified on an infrared imager using a densitometry software package (Odyssey CLx, Image Studio, Li-Cor). This background subtracted densitometry value was reported as a ration of the GAPDH amount for that sample and then calculated as a percent of the DMSO treated sample. The software package XL-fit (IDBS) was then used to calculate a relative IC50 value for the dilution series of a given test compound according to the equation: fit=(D+((Vmax*(x^n))/((x^n)+(Km^n)))).

The term IC50 denotes the point on the concentration scale where inhibition reaches its midpoint. Turning to `O=C(O)c1ccnc(-c2cn(CCN(Cc3ccc(F)cc3)C3CC3)cn2)c1` [Example 71, 2-[1-[2-[cyclopropyl-[(4-fluorophenyl)methyl]amino]ethyl]imidazol-4-yl]pyridine-4-carboxylic acid], the 50% inhibitory concentration (IC50) against Jarid1B is at most 100 nM; against JMJD2A, at most 100 nM; on Jarid1A, at most 100 nM; in the assay on KDM5A and KDM5B, 1000 to 10000 nM; against FBXL10, at most 100 nM; against JMJD2C it was at most 100 nM.
For `Cc1ccccc1CCn1cnc(-c2cc(C(=O)O)ccn2)c1` [Example 96, 2-[1-[2-(2-methylphenyl)ethyl]imidazol-4-yl]pyridine-4-carboxylic acid], the half-inhibitory concentration (IC50) against Jarid1B was at most 100 nM; against JMJD2A, 100 to 1000 nM; at Jarid1A, at most 100 nM; in the assay with KDM5A and KDM5B, 1000 to 10000 nM; against FBXL10 it was at most 100 nM; against JMJD2C it was 100 to 1000 nM.
In the case of `O=C(O)c1ccnc(-c2cn(CCc3ccccc3Cl)cn2)c1` [Example 97, 2-[1-[2-(2-chlorophenyl)ethyl]imidazol-4-yl]pyridine-4-carboxylic acid], the IC50 against Jarid1B was at most 100 nM; on JMJD2A it was at most 100 nM; against Jarid1A it was at most 100 nM; in the assay on KDM5A and KDM5B, 1000 to 10000 nM; against FBXL10, at most 100 nM; against JMJD2C, 100 to 1000 nM.
With `O=C(O)c1ccnc(-c2cn(CCN3CCCC3)cn2)c1` [Example 43, 2-{1-[2-(pyrrolidin-1-yl)ethyl]-1H-imidazol-4-yl}pyridine-4-carboxylic acid], the IC50 against Jarid1B was at most 100 nM; against JMJD2A, at most 100 nM; on Jarid1A it was at most 100 nM; in the assay with KDM5A and KDM5B, above 10000 nM; on FBXL10, 1000 to 10000 nM; on JMJD2C, at most 100 nM.
On to `Cn1cnc(-c2cc(-c3nn[nH]n3)ccn2)c1` [Example 62, 2-(1-methyl-1H-imidazol-4-yl)-4-(2H-tetrazol-5-yl)pyridine], for which the half-inhibitory concentration (IC50) on Jarid1B is 100 to 1000 nM; against JMJD2A it was above 10000 nM; against Jarid1A, 100 to 1000 nM; in the assay with KDM5A and KDM5B, above 10000 nM; at FBXL10 it was at most 100 nM; on JMJD2C, above 10000 nM.
In the case of `O=C(O)c1ccnc(-c2cn(C3Cc4ccccc4C3)cn2)c1` [Example 99, 2-[1-(2,3-dihydro-1H-inden-2-yl)imidazol-4-yl]pyridine-4-carboxylic acid], the half-inhibitory concentration (IC50) at Jarid1B is at most 100 nM; against JMJD2A it was 100 to 1000 nM; against Jarid1A, at most 100 nM; in the assay on KDM5A and KDM5B, 1000 to 10000 nM; on FBXL10 it was at most 100 nM; against JMJD2C it was 100 to 1000 nM.
Consider `CC(c1ccccc1)n1cnc(-c2cc(C(=O)O)ccn2)c1` (stereo not drawn) [Example 103], for which the IC50 at Jarid1B is at most 100 nM; against JMJD2A, at most 100 nM; on Jarid1A, at most 100 nM; with KDM5A and KDM5B, 1000 to 10000 nM; at FBXL10, at most 100 nM; against JMJD2C it was at most 100 nM.
Consider `O=C(O)c1ccnc(-c2cn(CCN3CCCc4ccccc43)cn2)c1` [Example 88, 2-[1-[2-(3,4-dihydro-2H-quinolin-1-yl)ethyl]imidazol-4-yl]pyridine-4-carboxylic acid], for which the 50% inhibitory concentration (IC50) at Jarid1B is at most 100 nM; against JMJD2A it was at most 100 nM; at Jarid1A, at most 100 nM; in the assay on KDM5A and KDM5B it was 1000 to 10000 nM; at FBXL10, at most 100 nM; against JMJD2C, 100 to 1000 nM.
For `Cn1cnc(-c2cc(C(=O)O)ccn2)c1-c1ccc(F)cc1` [Example 23, 2-[5-(4-fluorophenyl)-1-methyl-1H-imidazol-4-yl]pyridine-4-carboxylic acid], the 50% inhibitory concentration (IC50) is at most 100 nM against Jarid1B; 100 to 1000 nM against JMJD2A; at most 100 nM on Jarid1A; 1000 to 10000 nM in the assay on KDM5A and KDM5B; at most 100 nM at FBXL10; 100 to 1000 nM at JMJD2C.
For the molecule `CC(C)(Cn1cnc(-c2cc(C(=O)O)ccn2)c1)c1ccccc1Cl` [Example 105, 2-[1-[2-(2-chlorophenyl)-2-methylpropyl]imidazol-4-yl]pyridine-4-carboxylic acid], the IC50 was at most 100 nM against Jarid1B; 100 to 1000 nM against JMJD2A; at most 100 nM at Jarid1A; 1000 to 10000 nM in the assay with KDM5A and KDM5B; at most 100 nM at FBXL10; 1000 to 10000 nM against JMJD2C.
As for `Cn1cnc(-c2cc(C(=O)O)ccn2)c1` [Example 1, 2-(1-methyl-1H-imidazol-4-yl)pyridine-4-carboxylic acid], the IC50 is at most 100 nM at Jarid1B; at most 100 nM at JMJD2A; at most 100 nM on Jarid1A; above 10000 nM in the assay with KDM5A and KDM5B; at most 100 nM against FBXL10; at most 100 nM against JMJD2C.
`O=C(O)c1ccnc(-c2cn(CCc3ccccc3C(F)(F)F)cn2)c1` [Example 98, 2-[1-[2-[2-(trifluoromethyl)phenyl]ethyl]imidazol-4-yl]pyridine-4-carboxylic acid]: the IC50 against Jarid1B was at most 100 nM; at JMJD2A it was at most 100 nM; against Jarid1A it was at most 100 nM; in the assay with KDM5A and KDM5B it was above 10000 nM; on FBXL10, at most 100 nM; against JMJD2C it was at most 100 nM.
Turning to `O=C(O)c1ccnc(-c2cn(Cc3ccccc3F)cn2)c1` [Example 102, 2-[1-[(2-fluorophenyl)methyl]imidazol-4-yl]pyridine-4-carboxylic acid], the IC50 at Jarid1B is at most 100 nM; against JMJD2A it was 100 to 1000 nM; against Jarid1A, at most 100 nM; with KDM5A and KDM5B, 1000 to 10000 nM; on FBXL10, at most 100 nM; against JMJD2C it was 100 to 1000 nM.
As for `O=C(O)c1ccnc(-c2cn(Cc3ccc(F)cc3)cn2)c1` [Example 101, 2-[1-[(4-fluorophenyl)methyl]imidazol-4-yl]pyridine-4-carboxylic acid], the IC50 against Jarid1B is at most 100 nM; at JMJD2A, 100 to 1000 nM; against Jarid1A it was at most 100 nM; in the assay on KDM5A and KDM5B, 1000 to 10000 nM; on FBXL10, at most 100 nM; against JMJD2C, 100 to 1000 nM.
As for `COc1ccccc1CCn1cnc(-c2cc(C(=O)O)ccn2)c1` [Example 95, 2-[1-[2-(2-methoxyphenyl)ethyl]imidazol-4-yl]pyridine-4-carboxylic acid], the concentration for half-maximal inhibition (IC50) was at most 100 nM against Jarid1B; 100 to 1000 nM against JMJD2A; at most 100 nM against Jarid1A; above 10000 nM in the assay with KDM5A and KDM5B; at most 100 nM on FBXL10; 100 to 1000 nM on JMJD2C.

The values above are taken from patent publication US10273222B2 (CELGENE QUANTICEL RESEARCH, INC., priority 2013, dated 2019).
